{"source": "ChEMBL document CHEMBL4373679", "about": "“Overcoming synthetic challenges in targeting coenzyme A biosynthesis with the antimicrobial natural product CJ-15,801” (Medchemcomm, 2019)", "assay_type_in_all_cases": "functional, organism-based", "key": {"[1]": {"tested_on": "Plasmodium falciparum", "assay": "Antimalarial activity against Plasmodium falciparum infected in erythrocytes in presence of 1 uM pantothenic acid by SYBR safe-based fluorescence assay"}, "[2]": {"tested_on": "Plasmodium falciparum", "assay": "Antimalarial activity against Plasmodium falciparum infected in erythrocytes in presence of 1 uM pantothenic acid and TBA salt form by SYBR safe-based fluorescence assay"}, "[3]": {"tested_on": "Plasmodium falciparum", "assay": "Antimalarial activity against Plasmodium falciparum infected in erythrocytes in presence of 100 uM pantothenic acid and TBA salt form by SYBR safe-based fluorescence assay"}}}
{"smiles": "CC(C)(CO)[C@@H](O)C(=O)N/C=C/C(=O)O", "values": [{"measurement": "IC50", "setting": "[1]", "result": 64, "unit": "µM"}, {"measurement": "IC50", "setting": "[2]", "result": 25, "unit": "µM"}, {"measurement": "IC50", "setting": "[3]", "result": 25, "unit": "µM"}]}
{"smiles": "CCCC[N+](CCCC)(CCCC)CCCC", "note": "[TETRABUTHYLAMMONIUM]", "values": [{"measurement": "IC50", "setting": "[1]", "result": 5, "unit": "µM"}]}
